This note sets out measurements from patent publication US9061984B2 (University of Louisville Research Foundation, Inc., priority 2008, dated 2015).

≈ marks a conversion by molar mass, not a printed value.

One data set deals with axenic amastigotes of L. amazonensis (strain MHOM/BR/76/LTB-012).
Experiment: not given
The conditions noted are these: Table 8b.
For the molecule `C=CCOc1cc(/C=N\Nc2ncnc3sc4c(c23)CCCC4)cc(OCC=C)c1Br` [II-17], the “Selectivity Index” value is given as 0.7.
Regarding `C(=N/Nc1ncnc2sc3c(c12)CCCC3)/c1ccc2ccccc2c1` [II-03], the “Selectivity Index” value came out at 0.4.
Still for that read-out and setting: the value for `c1ccc(C(=NNc2ncnc3sc4c(c23)CCCC4)c2ccccc2)cc1` [II-49] was 0.9.

For a further data set, the system named is M. tuberculosis H37Rv. The data set is described as follows: Conventional aerobic (MABA) culture assay, luminescence MIC. The data set is classed as cell-based, Mycobacterium tuberculosis. The conditions noted are these: Mycobacterium tuberculosis, 168 h; aerobic, 7 days, H37Rv.
`C=CCOc1cc(/C=N\Nc2ncnc3sc4c(c23)CCCC4)cc(OCC=C)c1Br` [II-17] came in with an MIC of more than 100 µg/mL.
As to `C(=N/Nc1ncnc2sc3c(c12)CCCC3)/c1ccc2ccccc2c1` [II-03], the MIC was more than 100 µg/mL.
As to `c1ccc(C(=NNc2ncnc3sc4c(c23)CCCC4)c2ccccc2)cc1` [II-49], the MIC was more than 100 µg/mL.

A further data set concerns VERO cells. The data set is described as follows: Cell growth inhibition bioassay (sulforhodamine B). In kind it is cell-based, African Green Monkey. The conditions noted are these: Chlorocebus sabaeus, Vero; 48 h, SRB; read-out: GI50 in indicated cell line: VERO. The protocol:
(§1) The cytotoxicity of compounds was assayed as follows. […] Appropriate solvent controls were tested for comparison. The percent inhibition of cell growth relative to the control was evaluated colorimetrically using a sulforhodamine B dye by comparison to the control. The calorimetric procedure followed that published in Skehan et al., J. Nat. Cancer Inst., […], pp. 1107-1112 (1990) and Boyd & Paull, Drug Dev. Res., Vol. 34, pp. 91-109 (1995). […] The cell lines are: 3T3 cells are BALB/3T3 clone A31 embryonic mouse fibroblast cells; H460 cells are human large cell lung cancer cells; DU145 cells are human prostate carcinoma cells; MCF-7 cells are human breast adenocarcinoma cells; M-14 cells are human melanoma cells; HT-29 cells are human colon adenocarcinoma cells; PC3 cells are human prostate adenocarcinoma cells; K562 cells are human chronic myelogenous leukemia cells; and VERO cells are African Green Monkey kidney epithelial cells.
For `C=CCOc1cc(/C=N\Nc2ncnc3sc4c(c23)CCCC4)cc(OCC=C)c1Br` [II-17], the GI50 came out at 2.2 µg/mL (≈ 4.4 µM).
Turning to `C(=N/Nc1ncnc2sc3c(c12)CCCC3)/c1ccc2ccccc2c1` [II-03], the GI50 came out at 2.9 µg/mL (≈ 8.09 µM).
The same measure, in the same setting: next, `c1ccc(C(=NNc2ncnc3sc4c(c23)CCCC4)c2ccccc2)cc1` [II-49]: more than 62.5 µg/mL.

In a further data set the test system is K562 cells. The data set can be described thus: Cell growth inhibition bioassay (sulforhodamine B). The data set is classed as cell-based, human. The conditions noted are these: Homo sapiens, K562; 48 h, SRB; read-out: GI50 in indicated cell line: K562. The protocol: as §1
On to `C=CCOc1cc(/C=N\Nc2ncnc3sc4c(c23)CCCC4)cc(OCC=C)c1Br` [II-17], for which the GI50 worked out at 2 µg/mL (≈ 4 µM).
Regarding `C(=N/Nc1ncnc2sc3c(c12)CCCC3)/c1ccc2ccccc2c1` [II-03], the GI50 amounted to 2.2 µg/mL (≈ 6.14 µM).
`c1ccc(C(=NNc2ncnc3sc4c(c23)CCCC4)c2ccccc2)cc1` [II-49]: the GI50 is more than 62.5 µg/mL.

Another data set deals with H460 cells. The data set is described as follows: Cell growth inhibition bioassay (sulforhodamine B). In kind it is cell-based, human. As to conditions: Homo sapiens, NCI-H460; 48 h, SRB; read-out: GI50 in indicated cell line: H460. The protocol:
as §1
`C=CCOc1cc(/C=N\Nc2ncnc3sc4c(c23)CCCC4)cc(OCC=C)c1Br` [II-17]: the GI50 came to 1.6 µg/mL (≈ 3.2 µM).
`C(=N/Nc1ncnc2sc3c(c12)CCCC3)/c1ccc2ccccc2c1` [II-03]: the GI50 turned out to be 7.4 µg/mL (≈ 20.6 µM).
As to `c1ccc(C(=NNc2ncnc3sc4c(c23)CCCC4)c2ccccc2)cc1` [II-49], the GI50 was more than 62.5 µg/mL.

Another data set concerns MCF-7 cells. The data set is described as follows: Cell growth inhibition bioassay (sulforhodamine B). In kind it is cell-based, human. As to conditions: Homo sapiens, MCF7; 48 h, SRB; read-out: GI50 in indicated cell line: MCF-7. The protocol:
as §1
As to `C=CCOc1cc(/C=N\Nc2ncnc3sc4c(c23)CCCC4)cc(OCC=C)c1Br` [II-17], the GI50 is 1.9 µg/mL (≈ 3.8 µM).
As to `C(=N/Nc1ncnc2sc3c(c12)CCCC3)/c1ccc2ccccc2c1` [II-03], the GI50 was determined as 3.3 µg/mL (≈ 9.21 µM).
Take `c1ccc(C(=NNc2ncnc3sc4c(c23)CCCC4)c2ccccc2)cc1` [II-49]: the GI50 is more than 62.5 µg/mL.

A further data set has as its system M-14 cells. The data set is described as follows: Cell growth inhibition bioassay (sulforhodamine B). The data set is classed as cell-based, human. As to conditions: Homo sapiens, M14; 48 h, SRB; read-out: GI50 in indicated cell line: M-14. On the procedure:
as §1
For `C=CCOc1cc(/C=N\Nc2ncnc3sc4c(c23)CCCC4)cc(OCC=C)c1Br` [II-17], the GI50 was found to be 6.4 µg/mL (≈ 12.8 µM).
For `C(=N/Nc1ncnc2sc3c(c12)CCCC3)/c1ccc2ccccc2c1` [II-03], the GI50 amounted to 12.6 µg/mL (≈ 35.1 µM).
As to `c1ccc(C(=NNc2ncnc3sc4c(c23)CCCC4)c2ccccc2)cc1` [II-49], the GI50 is more than 62.5 µg/mL.

In another data set the test system is HT-29 cells. The data set can be described thus: Cell growth inhibition bioassay (sulforhodamine B). In kind it is cell-based, human. The conditions noted are these: Homo sapiens, HT-29; 48 h, SRB; read-out: GI50 in indicated cell line: HT-29. On the procedure:
as §1
Regarding `C=CCOc1cc(/C=N\Nc2ncnc3sc4c(c23)CCCC4)cc(OCC=C)c1Br` [II-17], the GI50 is 1.9 µg/mL (≈ 3.8 µM).
In the case of `C(=N/Nc1ncnc2sc3c(c12)CCCC3)/c1ccc2ccccc2c1` [II-03], the GI50 was 6.9 µg/mL (≈ 19.2 µM).
As to `c1ccc(C(=NNc2ncnc3sc4c(c23)CCCC4)c2ccccc2)cc1` [II-49], the GI50 was more than 62.5 µg/mL.

The subject of another data set is DU145 cells. The data set is described as follows: Cell growth inhibition bioassay (sulforhodamine B). In kind it is cell-based, human. As to conditions: Homo sapiens, DU-145; 48 h, SRB; read-out: GI50 in indicated cell line: DU145. On the procedure: as §1
In the case of `C=CCOc1cc(/C=N\Nc2ncnc3sc4c(c23)CCCC4)cc(OCC=C)c1Br` [II-17], the GI50 was less than 0.98 µg/mL.
In the case of `C(=N/Nc1ncnc2sc3c(c12)CCCC3)/c1ccc2ccccc2c1` [II-03], the concentration for 50% growth inhibition (GI50) came to 8.7 µg/mL (≈ 24.3 µM).
Same read-out and setting: next, `c1ccc(C(=NNc2ncnc3sc4c(c23)CCCC4)c2ccccc2)cc1` [II-49]: more than 62.5 µg/mL.

System in a further data set: not listed separately
The data set can be described thus: Toxicity to peritoneal macrophages (Trypan Blue count). The data set is classed as cell-based, BALB/C mouse. As to conditions: BALB/C, mouse, Cytotoxicity Macrophages IC50. On the procedure: Peritoneal macrophages were prepared as follows. Non-inflammatory macrophages (10^6) were collected from each BALB/C mouse. The cells adhered at 37° C. after 2 h under 5% CO2 in a CO2 incubator. The plates were then rinsed two to three times with 0.5 mL of RPMI+buffer MOPS without fetal calf serum to eliminate non-adhering cells. The supernatant on the plates was replaced by fresh medium (RPMI+glutamine+FCS+antibiotics), 0.5 mL of medium per well. To determine the toxicity of the compounds to macrophages, dilutions of compounds were added on a part of the macrophages prepared above. […] The medium was then removed and 1 μL of sterile Trypan Blue was added. Cover glasses N° 1 were left where cells were plated and then the number of macrophages in a microscope was determined with a haemocytometer. All experiments were performed in triplicate.
`C=CCOc1cc(/C=N\Nc2ncnc3sc4c(c23)CCCC4)cc(OCC=C)c1Br` [II-17] had an IC50 at 48 h of 1.7 µM.
Molecule `C(=N/Nc1ncnc2sc3c(c12)CCCC3)/c1ccc2ccccc2c1` [II-03] returned an IC50 at 48 h of 5.7 µM.
Molecule `c1ccc(C(=NNc2ncnc3sc4c(c23)CCCC4)c2ccccc2)cc1` [II-49] showed an IC50 at 48 h of 59.8 µM.

The test system of the next data set is axenic amastigotes of L. amazonensis (strain MHOM/BR/76/LTB-012). The data set can be described thus: microbe, parasite or virus in culture. As to conditions: Leishmania amazonensis, read-out: L. amazonensis IC50.
Regarding `C=CCOc1cc(/C=N\Nc2ncnc3sc4c(c23)CCCC4)cc(OCC=C)c1Br` [II-17], the half-inhibitory concentration (IC50) worked out at 2.6 µM.
On the same count and under the same terms, next, `C(=N/Nc1ncnc2sc3c(c12)CCCC3)/c1ccc2ccccc2c1` [II-03]: 14 µM; `c1ccc(C(=NNc2ncnc3sc4c(c23)CCCC4)c2ccccc2)cc1` [II-49]: 70.1 µM.

The next data set concerns 3T3 cells. The data set can be described thus: Cell growth inhibition bioassay (sulforhodamine B). In kind it is cell-based, mouse. As to conditions: Mus musculus, NIH3T3; 48 h, SRB; read-out: GI50 in indicated cell line: 3T3. On the procedure:
as §1
As for `C=CCOc1cc(/C=N\Nc2ncnc3sc4c(c23)CCCC4)cc(OCC=C)c1Br` [II-17], the GI50 was less than 0.98 µg/mL.
Turning to `C(=N/Nc1ncnc2sc3c(c12)CCCC3)/c1ccc2ccccc2c1` [II-03], the GI50 is 10 µg/mL (≈ 27.9 µM).
Take `c1ccc(C(=NNc2ncnc3sc4c(c23)CCCC4)c2ccccc2)cc1` [II-49]: the GI50 is more than 62.5 µg/mL.

In another data set the test system is Trypanosoma cruzi (Tulahuen C4). The data set is described as follows: In vitro anti-T. cruzi activity (β-galactosidase CPRG colorimetric assay in VERO monolayer). The data set is classed as cell-based. The conditions noted are these: IC50, VERO/IC50, T. cruzi; Lab B.
Take `C=CCOc1cc(/C=N\Nc2ncnc3sc4c(c23)CCCC4)cc(OCC=C)c1Br` [II-17]: the “Selectivity Index Lab B” value turned out to be 0.4.
As for `C(=N/Nc1ncnc2sc3c(c12)CCCC3)/c1ccc2ccccc2c1` [II-03], the “Selectivity Index Lab B” value is listed as 1.1.

The same data set, now with this note: Trypanosoma cruzi, TULAHUEN, Vero, Lab A; read-out: T. cruzi IC50 Lab A.
As to `C=CCOc1cc(/C=N\Nc2ncnc3sc4c(c23)CCCC4)cc(OCC=C)c1Br` [II-17], the IC50 was found to be 10.2 µg/mL (≈ 20.4 µM).

The data set is the same for the next values; noted with them: Trypanosoma cruzi, TULAHUEN, Vero, Lab B; read-out: T. cruzi IC50 Lab B.
With `C=CCOc1cc(/C=N\Nc2ncnc3sc4c(c23)CCCC4)cc(OCC=C)c1Br` [II-17], the IC50 came to 7.7 µg/mL (≈ 15.4 µM).
`C(=N/Nc1ncnc2sc3c(c12)CCCC3)/c1ccc2ccccc2c1` [II-03]: the IC50 was 4.8 µg/mL (≈ 13.4 µM).

System in a further data set: not listed separately
The data set is described as follows: Cytotoxicity on VERO cells (MTT), anti-T. cruzi study. As to conditions: African green monkey, VERO cells, Cytotoxicity VERO Lab B, Lab B.
`C=CCOc1cc(/C=N\Nc2ncnc3sc4c(c23)CCCC4)cc(OCC=C)c1Br` [II-17] returned an IC50 of 3 µg/mL (≈ 6.01 µM).
As to `C(=N/Nc1ncnc2sc3c(c12)CCCC3)/c1ccc2ccccc2c1` [II-03], the concentration for half-maximal inhibition (IC50) was found to be 5 µg/mL (≈ 13.9 µM).

Broadly, the MIC is the lowest concentration found to suppress growth. High values mean weaker potency, low ones greater potency. Usually GI50 stands for the concentration giving 50% growth inhibition. Broadly, the IC50 is the point on the concentration scale where inhibition reaches its midpoint.
